Where a SMILES comes first, the peptide text is derived from it.
system: SARS-CoV-2 M^pro precursors Nsp4-4F-M^pro-GST and 4F-M^pro-GST; format: cell-based

Structure (SMILES)	AlphaLISA signal (precursor-mediated N-terminal processing)
CC(C)C[C@H](NC(=O)[C@H]1O[C@@H]1C(=O)O)C(=O)NCCCCN=C(N)N [E-64]	background levels
CC(NC(=O)[C@H](Cc1ccccc1)NC(=O)OCc1ccccc1)C(=O)CF (stereo partly drawn) [Z-FA-FMK]	no detectable impact
COC(=O)N[C@H](C(=O)N[C@@H](Cc1ccccc1)[C@@H](O)CN(Cc1ccc(-c2ccccn2)cc1)NC(=O)[C@@H](NC(=O)OC)C(C)(C)C)C(C)(C)C [atazanavir]	background levels
CC(C)(C)NC(=O)N[C@H](C(=O)N1C[C@H]2[C@@H]([C@H]1C(=O)NC(CC1CCC1)C(=O)C(N)=O)C2(C)C)C(C)(C)C (stereo partly drawn) [boceprevir, Boceprevir]	no detectable impact
CSCC[C@@H](C=O)NC(=O)[C@H](CC(C)C)NC(=O)[C@H](CC(C)C)NC(C)=O [calpain inhibitor II] (Ac-Leu-Leu-Met-aldehyde)	no detectable impact
Cc1cccc(C)c1OCC(=O)N[C@@H](Cc1ccccc1)[C@@H](O)C[C@H](Cc1ccccc1)NC(=O)[C@H](C(C)C)N1CCCNC1=O [lopinavir]	background levels

— PMC11359197 (Viruses, 2024)
